Assay results as given in patent publication US20150141381A1, “TETRACYCLINE COMPOUNDS HAVING TARGET THERAPEUTIC ACTIVITIES” (Paratek Pharmaceuticals, Inc., priority 2001, published 2015).
Like-named read-outs stand apart in the source and are kept apart here.

Experiments:
[1] = tested on: S. aureus RN450; experiment: In Vitro Anti-Bacterial Activity Assay (MIC), gram positive; type: cell-based; details: Staphylococcus aureus, RN450, 18 h
[2] = tested on: E. coli mL308 225; experiment: In Vitro Anti-Bacterial Activity Assay (MIC), gram negative; type: cell-based; details: Escherichia coli, ML308225, 18 h
[3] = gram positive bacteria, read-out: Antibiotic Activity Gram + (MIC)
[4] = gram negative bacteria, read-out: Antibiotic Activity Gram − (MIC)
[5] = MIC class, Table 3 (Continued), read-out: Gram+ activity
[6] = MIC class, Table 3 (Continued), read-out: Gram− activity
[7] = MIC class, Table 3, read-out: Antibiotic Activity Gram +
[8] = MIC class, Table 3, read-out: Antibiotic Activity Gram −

SMILES	MIC [1, 3] [µg/mL]	MIC [2, 4] [µg/mL]	MIC [1, 7] [µg/mL]	MIC [2, 8] [µg/mL]	other results
CN(C)[C@@H]1C(O)=C(C(N)=O)C(=O)[C@@]2(O)C(O)=C3C(=O)c4c(O)ccc(C5CCCC5)c4C[C@H]3C[C@@H]12	< 4	< 4	–	–	–
CC#Cc1ccc(O)c2c1C[C@H]1C[C@H]3[C@H](N(C)C)C(O)=C(C(N)=O)C(=O)[C@@]3(O)C(O)=C1C2=O	–	–	–	–	MIC [1, 5]: < 4 µg/mL; MIC [2, 6]: < 4 µg/mL
CN(C)[C@@H]1C(O)=C(C(N)=O)C(=O)[C@@]2(O)C(O)=C3C(=O)c4c(O)ccc(-c5ccc(NC(=O)c6ccco6)cc5)c4C[C@H]3C[C@@H]12	< 4	> 4	–	–	–
CN(C)[C@@H]1C(OCc2ccccc2)=C(C(N)=O)C(=O)[C@@]2(O)C(O)=C3C(=O)c4c(O)cccc4C[C@H]3C[C@@H]12	> 4	> 4	–	–	–
CN(C)[C@@H]1C(O)=C(C(N)=O)C(=O)[C@@]2(O)C(O)=C3C(=O)c4c(O)ccc(-c5ccc(F)c(F)c5)c4C[C@H]3C[C@@H]12	< 4	< 4	–	–	–
CO/N=C(/C)c1ccc(O)c2c1C[C@H]1C[C@H]3C(N(C)C)C(O)=C(C(N)=O)C(=O)[C@@]3(O)C(O)=C1C2=O (stereo partly shown) [ET]	–	–	< 4	< 4	–
CN(C)c1cc(CN2CCCCC2)c(O)c2c1C[C@H]1C[C@H]3[C@H](N(C)C)C(O)=C(C(N)=O)C(=O)[C@@]3(O)C(O)=C1C2=O	< 4	< 4	–	–	–
CCCCCc1cc(N(C)C)c2c(c1O)C(=O)C1=C(O)[C@]3(O)C(=O)C(C(N)=O)=C(O)[C@@H](N(C)C)[C@@H]3C[C@@H]1C2 [DX]	–	–	< 4	> 4	–
CN(C)C1C(O)=C(C(N)=O)C(=O)[C@@]2(O)C(O)=C3C(=O)c4c(O)ccc(-c5ccc(CN6CCCC6)c6ccccc56)c4C[C@H]3C[C@@H]12 (stereo partly shown) [GH]	–	–	< 4	< 4	–
CO/N=C(\C)c1ccc(O)c2c1C[C@H]1C[C@H]3[C@H](N(C)C)C(O)=C(C(N)=O)C(=O)[C@@]3(O)C(O)=C1C2=O [EU]	–	–	< 4	< 4	–
CC(C)NCc1ccc(O)c2c1C[C@H]1C[C@H]3C(N(C)C)C(O)=C(C(N)=O)C(=O)[C@@]3(O)C(O)=C1C2=O (stereo partly shown) [KK]	–	–	< 4	< 4	–
CC(=O)O[C@@H]1[C@H]2[C@H](N(C)C)C(O)=C(C(N)=O)C(=O)[C@@]2(O)C(O)=C2C(=O)c3c(O)cccc3C(C)[C@H]21 (stereo partly shown)	–	–	–	–	MIC [1, 5]: < 4 µg/mL; MIC [2, 6]: < 4 µg/mL
CN(C)c1cc(CN2CCC(=O)CC2)c(O)c2c1C[C@H]1C[C@H]3[C@H](N(C)C)C(O)=C(C(N)=O)C(=O)[C@@]3(O)C(O)=C1C2=O	< 4	> 4	–	–	–
CN(C)[C@@H]1C(O)=C(C(N)=O)C(=O)[C@@]2(O)C(O)=C3C(=O)c4c(O)ccc(-c5cc(F)cc(F)c5)c4C[C@H]3C[C@@H]12	< 4	< 4	–	–	–
CSCc1cc(-c2ccccn2)c2c(c1O)C(=O)C1=C(O)[C@]3(O)C(=O)C(C(N)=O)=C(O)[C@@H](N(C)C)[C@@H]3C[C@@H]1C2	< 4	> 4	–	–	–
CN(C)[C@@H]1C(O)=C(C(N)=O)C(=O)[C@@]2(O)C(O)=C3C(=O)c4c(O)ccc(CNCc5cccn5C)c4C[C@H]3C[C@@H]12 [KG]	–	–	< 4	< 4	–
CN(C)[C@@H]1C(OCc2ccccc2)=C(C(N)=O)C(=O)[C@@]2(O)C(O)=C3C(=O)c4c(O)ccc(-c5ccc(C(F)(F)F)cc5)c4C[C@H]3C[C@@H]12 [OU]	–	–	< 4	> 4	–
CN(C)C1C(O)=C(C(N)=O)C(=O)[C@@]2(O)C(O)=C3C(=O)c4c(O)c(CN)cc(-c5ccc(C(C)(C)C)cc5)c4C[C@H]3C[C@@H]12 (stereo partly shown) [HJ]	–	–	< 4	< 4	–
CN(C)[C@@H]1C(O)=C(C(N)=O)C(=O)[C@@]2(O)C(O)=C3C(=O)c4c(O)ccc(C(=O)CN5CCCCC5)c4C[C@H]3C[C@@H]12	< 4	< 4	–	–	–
CN(C)[C@@H]1C(O)=C(C(N)=O)C(=O)[C@@]2(O)C(O)=C3C(=O)c4c(O)ccc(-c5ccc(CNCC(F)(F)F)cc5)c4C[C@H]3C[C@@H]12 [drawing 3505]	< 4	< 4	–	–	–
CCOP(=O)(OCC)C(Nc1cc(N(C)C)c2c(c1O)C(=O)C1=C(O)[C@]3(O)C(=O)C(C(N)=O)=C(O)[C@@H](N(C)C)[C@@H]3C[C@@H]1C2)c1ccccc1 (stereo partly shown) [AA]	–	–	–	–	MIC ([1]; read-out: Antibiotic Activity Gram +): > 4 µg/mL; MIC ([2]; read-out: Antibiotic Activity Gram −): > 4 µg/mL
CCOC(=O)COC1=C(C(N)=O)C(=O)[C@@]2(O)C(O)=C3C(=O)c4c(O)ccc(I)c4C[C@H]3C[C@H]2[C@@H]1N(C)C [OY]	–	–	< 4	> 4	–
COc1ncc(-c2ccc(O)c3c2C[C@H]2C[C@H]4[C@H](N(C)C)C(O)=C(C(N)=O)C(=O)[C@@]4(O)C(O)=C2C3=O)c(OC)n1 [GF]	–	–	< 4	< 4	–
